Source: article PMC6060375 (Drug Delivery, 2018)

Legend:
[1] = Tissue distribution of TA in tumor-bearing nude mice (GC-MS/MS); type: in vivo; settings: BALB/c nude, mouse, spleen, intravenous; TA measured after treatment of nude mice with mPEG2K-SA-TA; dose group not stated; read-out: tissue exposure to TA in spleen
Experimental: In order to better support the anti-tumor evaluation and following histological assay, the harvested tissues were prepared as abovementioned method to monitor the amount of TA by GC–MS/MS in these tissues, including heart, liver, spleen, lung, kidney and tumor.

[2] = Pharmacokinetics of TA in rats after i.v. administration; type: in vivo, Sprague–Dawley (SD) rats; settings: both sexes, Sprague-Dawley, rat, plasma, iv, total TA, 3 mg/kg TA equivalent
Experimental: Sprague–Dawley (SD) rats (male and female, 300 ± 30 g) were purchased from SIPPR/BK Experimental Animal Co., Ltd (Shanghai, China). All animals were kept in a humanized environment, with the temperature maintained at 20 ± 2 °C and relative humidity at 50 ± 10%. All the animal procedures were performed following the approved protocol. SD rats were randomly divided into different groups (n = 4 in each group). Rats from different groups were intravenously (i.v.) administrated with TA solution, PEGylated TA solution mPEG2K-SA-TA, respectively. At the designated time points, the blood samples were collected into polyethylene tubes containing EDTA at 0, 0.083, 0.167, 0.5, 0.75, 1, 2, 4, 8, 12, 24, 36 and 48 h and then centrifuged at 12,000 rpm for 5 min to obtain plasma. The plasma samples were stored at −80 °C till analysis. The harvested plasma samples were prepared by sample direct saponification or extraction and analyzed by GC–MS/MS (Wang et al., [2015]). […]
The pharmacokinetic parameters were calculated by a noncompartmental analysis using WinNonlin (Version 6.4; Pharsight, Mountain View, CA, USA). […] The systemic exposure to TA (area under the plasma concentration versus time profile from the dosing time to the terminal sampling time, AUC0−t) was calculated by trapezoidal rule. […]

concentration at 21 days [1]: 4170 ng/g
half-life ([2]; read-out: elimination half-life (t1/2) (converted)): 2.57 h
MRT ([2]; read-out: mean residence time): 2.95 h
SMILES: CCCCCCCCCCCCCCCCCCCCCCCCCCCCCCO [TA, Triacontanol]
